Measurements taken from patent US20080241279A1, “Materials and methods of using calcium for reduction of inflammation” (General Mills, Inc., priority 2004, published 2008).

Settings: about 1200 mg/day calcium, about −500 kcal diet, about 12 weeks; control group about 20%
Procedure: For example, about eighty (80) obese, but otherwise healthy, men and women (average baseline BMI about 34 kg/m2) with an average CRP of about 6.0 mg/L at baseline could be randomized to about 2 groups for about a 12 week intervention. Both groups would consume reduced calorie diets (about −500 kcal) to promote weight loss, with the calcium intake in “the control group” adjusted to about 500 mg/day and in “the intervention group” adjusted to about 1200 mg/day using a calcium source. […] DEXA and hs-CRP measurement can be performed at baseline and about 12 weeks.

O=C([O-])[O-].[Ca+2] [calcium carbonate]
fat loss from trunkal region: about 50%
